Calls of active or inactive are those of the source. The rule behind the calls is not given here.
What was measured:
HT-1080 [1] = test: HIM-PROTAC activity at GPX4/HSP90/E3 ligase in human HT-1080 cells assessed as reduction in GPX4 level at 0.1 to 3 uM incubated for 24 hrs by Western blotting analysis; type: cell-based; conditions: dose 0.1-3 µM
HT-1080 [2] = test: Cytotoxicity against human HT-1080 cells incubated for 48 hrs by CCK-8 assay; type: functional, cell-based; conditions: HT-1080, 48 h
HT-1080 [3] = test: HIM-PROTAC activity at GPX4/HSP90/E3 ligase in human HT-1080 cells assessed as reduction in GPX4 level at 0.3 uM incubated for 24 hrs by Western blotting analysis relative to control; type: cell-based; design: scale not given: the % may be the effect or the level left
HT-1080 [4] = test: HIM-PROTAC activity at GPX4/HSP90/E3 ligase in human HT-1080 cells assessed as reduction in GPX4 level at 1 uM incubated for 24 hrs in presence of 2-chloro-N-(3-chloro-4-methoxyphenyl)-N-(2-oxo-2-(phenethylamino)-1-(thiophen-2-yl)ethyl)acetamide by Western blotting analysis; type: cell-based
[5] = Toxicity in BALB/c mouse xenografted with human HT-1080 cells assessed as animal death at 25 mg/kg, ip administered once daily measured after 10 days in presence of 2-chloro-N-(3-chloro-4-methoxyphenyl)-N-(2-oxo-2-(phenethylamino)-1-(thiophen-2-yl)ethyl)acetamide; type: organism-based; conditions: in vivo, 240 h, time 10 day
HT-1080 [6] = test: HIM-PROTAC activity at GPX4/HSP90/E3 ligase in human HT-1080 cells assessed as reduction in GPX4 level at 1 uM incubated for 24 hrs by Western blotting analysis; type: cell-based
HT-1080 [7] = test: Induction of ferroptosis in human HT-1080 cells assessed as fold increase in cytotoxic IC50 incubated for 48 hrs in presence of Fer-1 by CCK-8 assay; type: functional
HT-1080 [8] = test: HIM-PROTAC activity at GPX4/HSP90/E3 ligase in human HT-1080 cells assessed as reduction in GPX4 level at 1 uM incubated for 24 hrs in presence of 6-chloro-9-((4-methoxy-3,5-dimethylpyridin-2-yl)methyl)-9H-purin-2-amine by Western blotting analysis; type: cell-based
HT-1080 [9] = test: Cytotoxicity against human HT-1080 cells incubated for 48 hrs in presence of Fer-1 by CCK-8 assay; type: functional, cell-based; conditions: HT-1080, 48 h
[10] = Toxicity in BALB/c mouse xenografted with human HT-1080 cells assessed as animal death at 25 mg/kg, ip administered once daily measured after 10 days in presence of 6-chloro-9-((4-methoxy-3,5-dimethylpyridin-2-yl)methyl)-9H-purin-2-amine; type: organism-based; conditions: in vivo, 240 h, time 10 day

SMILES | Activity (HT-1080 [1]) | IC50 (HT-1080 [2]) | further results
COc1c(C)cnc(Cn2cnc3c(N4CCC(C5CCN(C(=O)Cn6cc(COc7ccc(N(C(=O)CCl)C(C(=O)NCCc8ccccc8)c8cccs8)cc7Cl)nn6)CC5)CC4)nc(N)nc32)c1C (centres undefined) | Active | 980 nM | –
Nc1ncnc2c1nc(Sc1cc3c(cc1I)OCO3)n2CCCCCNC(=O)Cn1cc(COc2ccc(N(C(=O)CCl)C(C(=O)NCCc3ccccc3)c3cccs3)cc2Cl)nn1 (centres undefined) | Active | 1300 nM | Activity (HT-1080 [3]): < 50%
Nc1ncnc2c1nc(Sc1cc3c(cc1I)OCO3)n2CCNC(=O)Cn1cc(COc2ccc(N(C(=O)CCl)C(C(=O)NCCc3ccccc3)c3cccs3)cc2Cl)nn1 (centres undefined) | Active | 900 nM | –
Nc1ncnc2c1nc(Sc1cc3c(cc1I)OCO3)n2CCNC(=O)CCNC(=O)Cn1cc(COc2ccc(N(C(=O)CCl)C(C(=O)NCCc3ccccc3)c3cccs3)cc2Cl)nn1 (centres undefined) | Active | 56100 nM | –
Nc1ncnc2c1nc(Sc1cc3c(cc1I)OCO3)n2CCNC(=O)CCCCCNC(=O)Cn1cc(COc2ccc(N(C(=O)CCl)C(C(=O)NCCc3ccccc3)c3cccs3)cc2Cl)nn1 (centres undefined) | Active | 41500 nM | –
Nc1ncnc2c1nc(Sc1cc3c(cc1I)OCO3)n2CCOCCOCCNC(=O)Cn1cc(COc2ccc(N(C(=O)CCl)C(C(=O)NCCc3ccccc3)c3cccs3)cc2Cl)nn1 (centres undefined) | Active | 1500 nM | –
COc1c(C)cnc(Cn2cnc3c(NCCOCCOCCOCCNC(=O)Cn4cc(COc5ccc(N(C(=O)CCl)C(C(=O)NCCc6ccccc6)c6cccs6)cc5Cl)nn4)nc(N)nc32)c1C (centres undefined) | Active | 3200 nM | –
COc1c(C)cnc(Cn2cnc3c(NCCOCCOCCOCCOCCOCCn4cc(COc5ccc(N(C(=O)CCl)C(C(=O)NCCc6ccccc6)c6cccs6)cc5Cl)nn4)nc(N)nc32)c1C (centres undefined) | Active | 3500 nM | –
COc1c(C)cnc(Cn2cnc3c(N4CCC(NC(=O)Cn5cc(COc6ccc(N(C(=O)CCl)C(C(=O)NCCc7ccccc7)c7cccs7)cc6Cl)nn5)CC4)nc(N)nc32)c1C (centres undefined) | Active | 2400 nM | –
COc1c(C)cnc(Cn2cnc3c(NCCOCCOCCn4cc(COc5ccc(N(C(=O)CCl)C(C(=O)NCCc6ccccc6)c6cccs6)cc5Cl)nn4)nc(N)nc32)c1C (centres undefined) | Active | 1000 nM | –
COc1c(C)cnc(Cn2cnc3c(NCCC4CCN(C(=O)Cn5cc(COc6ccc(N(C(=O)CCl)C(C(=O)NCCc7ccccc7)c7cccs7)cc6Cl)nn5)CC4)nc(NC(C)=O)nc32)c1C (centres undefined) | Active | 15500 nM | –
COc1c(C)cnc(Cn2cnc3c(Cl)nc(N)nc32)c1C [BIIB021] | – | 16200 nM | Activity (HT-1080 [4]): inactive; Activity [5]: Toxic; Activity (HT-1080 [6]): inactive
COc1c(C)cnc(Cn2cnc3c(N4CCC(N5CCN(C(=O)Cn6cc(COc7ccc(N(C(=O)CCl)C(C(=O)NCCc8ccccc8)c8cccs8)cc7Cl)nn6)CC5)CC4)nc(N)nc32)c1C (centres undefined) | Active | 1400 nM | –
O=C1CCC(N2C(=O)c3cccc(NCCOCCOCCOCCn4cc(COc5ccc(N(C(=O)CCl)C(C(=O)NCCc6ccccc6)c6cccs6)cc5Cl)nn4)c3C2=O)C(=O)N1 (centres undefined) | – | 490 nM | Activity (HT-1080 [6]): Active
COc1ccc(N(C(=O)CCl)C(C(=O)NCCc2ccccc2)c2cccs2)cc1Cl (centres undefined) | – | 760 nM | fold change (FC) (HT-1080 [7]): 3; Activity (HT-1080 [8]): inactive; IC50 (HT-1080 [9]): 2000 nM; Activity (HT-1080 [6]): inactive; Activity [10]: Toxic
COc1c(C)cnc(Cn2cnc3c(NCCOCCNC(=O)Cn4cc(COc5ccc(N(C(=O)CCl)C(C(=O)NCCc6ccccc6)c6cccs6)cc5Cl)nn4)nc(N)nc32)c1C (centres undefined) | Active | 2400 nM | –
COc1c(C)cnc(Cn2cnc3c(NCCOCCOCCNC(=O)Cn4cc(COc5ccc(N(C(=O)CCl)C(C(=O)NCCc6ccccc6)c6cccs6)cc5Cl)nn4)nc(N)nc32)c1C (centres undefined) | Active | 2600 nM | –
COc1c(C)cnc(Cn2cnc3c(NCCOCCOCCOCCOCCNC(=O)Cn4cc(COc5ccc(N(C(=O)CCl)C(C(=O)NCCc6ccccc6)c6cccs6)cc5Cl)nn4)nc(N)nc32)c1C (centres undefined) | Active | 15200 nM | –
NCCC1CCN(C(=O)Cn2cc(COc3ccc(N(C(=O)CCl)C(C(=O)NCCc4ccccc4)c4cccs4)cc3Cl)nn2)CC1 (centres undefined) | Active | 8300 nM | –
COc1c(C)cnc(Cn2cnc3c(N4CCN(C(=O)Cn5cc(COc6ccc(N(C(=O)CCl)C(C(=O)NCCc7ccccc7)c7cccs7)cc6Cl)nn5)CC4)nc(N)nc32)c1C (centres undefined) | Active | 4100 nM | –
COc1c(C)cnc(Cn2cnc3c(NCCCCNC(=O)Cn4cc(COc5ccc(N(C(=O)CCl)C(C(=O)NCCc6ccccc6)c6cccs6)cc5Cl)nn4)nc(N)nc32)c1C (centres undefined) | Active | 1100 nM | –

Reference: ChEMBL document CHEMBL5608234, “Heat Shock Protein 90 Interactome-Mediated Proteolysis Targeting Chimera (HIM-PROTAC) Degrading Glutathione Peroxidase 4 to Trigger Ferroptosis” (J Med Chem, 2024)
